The record followed here is patent US20240262815A1, “HETEROARYL DERIVATIVE, METHOD FOR PREPARING SAME, AND PHARMACEUTICAL COMPOSITION COMPRISING SAME AS ACTIVE INGREDIENT” (VORONOI INC., priority 2021, published 2024).

Structures are written as SMILES. Where only a bound is given, the exact number is not on record here.

The test system of one experiment is SK-BR-3 cancer cells. The experiment in a line: Inhibitory activity against proliferation of SK-BR-3 cancer cells (CellTiter-Glo). The format is cell-based. The following applies: Homo sapiens, SK-BR-3, 120 h, ErbB2-overexpressing SK-BR-3 cells, 120 hours after treatment. The procedure, abridged: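 GI50 derived from % growth relative to control, measured by CellTiter-Glo luminescence after 120 h compound exposure (12 concentrations, 0.2 nM-5 μM final, n=3). BT-474 grown in RPMI-1640/20% FBS, SK-BR-3 in McCOY'S 5A/10% FBS; seeding 48 h pre-treatment.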
(In general: Cellular ATP, detected with luciferase, serves as a proxy for viable cell number.)

In a further experiment the test system is BT-474 cancer cells. The experiment in a line: Inhibitory activity against proliferation of BT-474 cancer cells (CellTiter-Glo). The format is cell-based. The following applies: Homo sapiens, BT-474 ErbB2-overexpressing cancer cells, 120 hours after treatment. The protocol: To evaluate the inhibitory activity of a compound according to the present invention against the proliferation of ErbB2-overexpressing cancer cells, the following experiment were performed.
10% FBS-added McCOY'S 5A was used for SK-BR-3 cancer cells. 20% FBS-added RPMI-1640 was used for BT-474 cancer cells. Transduced Ba/F3 cells were cultured in a RPMI-1640 medium to which 1 μg/ml puromycin (Invitrogen) was added.
48 hours before compound treatment, each type of the SK-BR-3 and BT-474 cells were seeded at 5,000 cells/well in a white clear bottom 96 well plate (Corning). The compound was diluted in dimethyl sulfoxide (SK-BR-3: 3-fold dilution, a total of 12 concentrations, BT-474: […], a total of 12 concentrations) and injected at 1 μl to have the final concentration of 0.2 nM to 5 μM. As for measurement of live cells, 120 hours after treatment with the compound, a CellTiter-Glo luminescent cell-viability reagent (Promega) was used to store the cells at room temperature for 10 minutes, followed by measurement of luminescence using a reader (SynergyNeo, Biotek). Each test was repeated three times.
The result values were calculated as a cell growth rate (%) compared to the control group. A graph was plotted using the GraphPad Prism version 8.3.0 program, and GI50 values were calculated.

As to `C=CC(=O)Nc1cc(Nc2cc(N3OCC[C@@H]3c3cc(F)cc(Oc4cccc(F)c4)c3)ncn2)c(OC)cc1N1CCN(C)[C@@H](C)C1` [Example 223, N-(2-((S)-3,4-dimethylpiperazin-1-yl)-5-((6-((R)-3-(3-fluoro-5-(3-fluorophenoxy)-phenyl)isoxazol-idin-2-yl)pyrim-idin-4-yl)amino)-4-methoxyphen-yl)acrylamide], the concentration for 50% growth inhibition (GI50) in the experiment with SK-BR-3 cancer cells and in the experiment with BT-474 cancer cells was less than 50 nM each time.
Turning to `C=CC(=O)Nc1cc(Nc2cc(N3OCC[C@@H]3c3cc(F)cc(Oc4cccc(F)c4)c3)ncn2)c(OC)cc1N1CCC(N(C)C)CC1` [Example 224, (R)-N-(2-(4-(dimethylamino)-piperidin-1-yl)-5-((6-(3-(3-fluoro-5-(3-fluorophenoxy)-phenyl)isoxazol-idin-2-yl)pyrim-idin-4-yl)amino)-4-methoxyphen-yl)acrylamide], the GI50 in the experiment on SK-BR-3 cancer cells and with BT-474 cancer cells was less than 50 nM each time.
As for `C=CC(=O)Nc1cc(Nc2cc(N3OCC[C@@H]3c3cccc(Oc4cc(F)cc(F)c4)c3)ncn2)c(OC)cc1N1CCN(C)CC1` [Example 225, (R)-N-(5-((6-(3-(3-(3,5-difluoro-phenoxy)phenyl)-isoxazolidin-2-yl)pyrimidin-4-yl)amino)-4-methoxy-2-(4-methylpiperazin-1-yl)phenyl)-acrylamide], the GI50 in the experiment on SK-BR-3 cancer cells and in the experiment on BT-474 cancer cells was less than 50 nM in each case.
Take `C=CC(=O)Nc1cc(Nc2cc(N3OCC[C@@H]3c3cccc(OCc4ccccc4)c3)ncn2)c(OC)cc1N(C)CCN(C)C` [Example 227, (R)-N-(5-((6-(3-(3-(benzyloxy)-phenyl)isoxazol-idin-2-yl)pyrim-idin-4-yl)amino)-2-((2-(dimethyl-amino)ethyl)-(methyl)amino)-4-methoxyphen-yl)acrylamide]: the concentration for 50% growth inhibition (GI50) in the experiment with SK-BR-3 cancer cells and in the experiment with BT-474 cancer cells was less than 50 nM in each case.
Take `C=CC(=O)Nc1cc(Nc2cc(N3OCC[C@@H]3c3cccc(OCc4cccc(F)c4)c3)ncn2)c(OC)cc1N(C)CCN(C)C` [Example 228, (R)-N-(2-((2-(dimethylamino)-ethyl)(methyl)-amino)-5-((6-(3-(3-((3-fluorobenz-yl)oxy)phenyl)-isoxazolidin-2-yl)-pyrimidin-4-yl)-amino)-4-methoxy-phenyl)acrylamide]: the GI50 in the experiment with SK-BR-3 cancer cells and with BT-474 cancer cells was less than 50 nM in each case.
For `C=CC(=O)Nc1cc(Nc2cc(N3OCC[C@@H]3c3cccc(-c4ccccc4)c3)ncn2)c(OC)cc1N1CCC(N2CCN(C3CC3)[C@@H](C)C2)CC1` [Example 231, N-(5-((6-((R)-3-([1,1′-biphenyl]-3-yl)isoxazolidin-2-yl)pyrimidin-4-yl)amino)-2-(4-((S)-4-cycloprop-yl-3-methylpiper-azin-1-yl)piperidin-1-yl)-4-methoxy-phenyl)acrylamide], the 50% growth inhibitory concentration (GI50) with SK-BR-3 cancer cells and in the experiment with BT-474 cancer cells was less than 50 nM in each case.
As for `C=CC(=O)Nc1cc(Nc2cc(N3OCCC3c3cccc(-c4cnn(C)c4)c3)ncn2)c(OC)cc1N(C)CCN(C)C` (centres unmarked) [Example 233, N-(2-((2-(dimeth-ylamino)ethyl)-(methyl)amino)-4-methoxy-5-((6-(3-(3-(1-methyl-1H-pyrazol-4-yl)phen-yl)isoxazolidin-2-yl)pyrimidin-4-yl)amino)phenyl)-acrylamide], the GI50 in the experiment on SK-BR-3 cancer cells and in the experiment on BT-474 cancer cells was less than 50 nM throughout.
Take `C=CC(=O)Nc1cc(Nc2cc(N3OCC[C@@H]3c3cccc(-c4cccc(F)c4)c3)ncn2)c(OC)cc1N1CCN(C)CC1` [Example 242, (R)-N-(5-((6-(3-(3′-fluoro-[1,1′-biphen-yl]-3-yl)isoxazol-idin-2-yl)pyrim-idin-4-yl)amino)-4-methoxy-2-(4-methylpiperazin-1-yl)phenyl)-acrylamide]: the GI50 in the experiment with SK-BR-3 cancer cells and in the experiment with BT-474 cancer cells was less than 50 nM throughout.
`C=CC(=O)Nc1cc(Nc2cc(N3OCC[C@@H]3c3cccc(C(=O)NC(C)C)c3)ncn2)c(OC)cc1N1CCC(N2CCN(C3CC3)CC2)CC1` [Example 253, (R)-3-(2-(6-((5-acrylamido-4-(4-(4-cyclopropyl-piperazin-1-yl)-piperidin-1-yl)-2-methoxyphenyl)-amino)pyrimidin-4-yl)isoxazolidin-3-yl)-N-isopropyl-benzamide]: the concentration for 50% growth inhibition (GI50) in the experiment with SK-BR-3 cancer cells and in the experiment with BT-474 cancer cells was less than 50 nM throughout.
Regarding `C=CC(=O)Nc1cc(Nc2cc(N3OCCC3c3cccc(-c4cc(F)cc(F)c4)c3)ncn2)c(OC)cc1N(C)CCN(C)C` (centres unmarked) [Example 265, N-(5-((6-(3-(3′,5′-difluoro-[1,1′-biphenyl]-3-yl)-isoxazolidin-2-yl)-pyrimidin-4-yl)-amino)-2-((2-(dimethylamino)-ethyl)(methyl)-amino)-4-meth-oxyphenyl)acryl-amide], the GI50 in the experiment with SK-BR-3 cancer cells and in the experiment with BT-474 cancer cells was less than 50 nM each time.
For `C=CC(=O)Nc1cc(Nc2cc(N3OCC[C@@H]3c3cccc(-c4cc(F)cc(F)c4)c3)ncn2)c(OC)cc1N1CCC(N2CCN(C3CC3)[C@@H](C)C2)CC1` [Example 274, N-(2-(4-((S)-4-cyclopropyl-3-methylpiperazin-1-yl)piperidin-1-yl)-5-((6-((R)-3-(3′,5′-difluoro-[1,1′-biphenyl]-3-yl)isoxazolidin-2-yl)pyrimidin-4-yl)amino)-4-meth-oxyphenyl)acryl-amide], the GI50 in the experiment on SK-BR-3 cancer cells and in the experiment on BT-474 cancer cells was less than 50 nM in each case.
Turning to `C=CC(=O)Nc1cc(Nc2cc(N3OCC[C@@H]3c3cccc(-c4cc(F)cc(F)c4)c3)ncn2)c(OC)cc1N1CCN(C(C)=O)CC1` [Example 275, (R)-N-(2-(4-acetyl-piperazin-1-yl)-5-((6-(3-(3′,5′-difluoro-[1,1′-biphenyl]-3-yl)-isoxazolidin-2-yl)-pyrimidin-4-yl)-amino)-4-meth-oxyphenyl)acryl-amide], the GI50 with SK-BR-3 cancer cells and in the experiment with BT-474 cancer cells was less than 50 nM in each case.
Take `C=CC(=O)Nc1cc(Nc2cc(N3OCC[C@@H]3c3cccc(-c4cc(F)cc(F)c4)c3)ncn2)c(OC)cc1N1CCN(C)CC1` [Example 276, (R)-N-(5-((6-(3-(3′,5′-difluoro-[1,1′-biphenyl]-3-yl)isoxazolidin-2-yl)pyrimidin-4-yl)-amino)-4-methoxy-2-(4-methylpiper-azin-1-yl)phenyl)-acrylamide]: the 50% growth inhibitory concentration (GI50) with SK-BR-3 cancer cells and with BT-474 cancer cells was less than 50 nM each time.
For the compound `C=CC(=O)Nc1cc(Nc2cc(N3OCC[C@@H]3c3cccc(-c4cc(F)cc(F)c4)c3)ncn2)c(OC)cc1N1CCN(CCC)CC1` [Example 278, (R)-N-(5-((6-(3-(3′,5′-difluoro-[1,1′-biphenyl]-3-yl)isoxazolidin-2-yl)pyrimidin-4-yl)-amino)-4-methoxy-2-(4-propylpiper-azin-1-yl)phenyl)-acrylamide], the GI50 in the experiment on SK-BR-3 cancer cells and with BT-474 cancer cells was less than 50 nM each time.
With `C=CC(=O)Nc1cc(Nc2cc(N3OCC[C@@H]3c3cccc(-c4ccc(F)cc4F)c3)ncn2)c(OC)cc1N(C)CCN(C)C` [Example 279, (R)-N-(5-((6-(3-(2′,4′-difluoro-[1,1′-biphenyl]-3-yl)isoxazolidin-2-yl)pyrimidin-4-yl)amino)-2-((2-(dimethylamino)-ethyl)(methyl)-amino)-4-methoxy-phenyl)acrylamide], the GI50 with SK-BR-3 cancer cells and with BT-474 cancer cells was less than 50 nM throughout.
With `C=CC(=O)Nc1cc(Nc2cc(N3OCC[C@@H]3c3cccc(-c4cccc(C(F)(F)F)c4F)c3)ncn2)c(OC)cc1N(C)CCN(C)C` [Example 280, (R)-N-(2-((2-(dimethylamino)-ethyl)(methyl)-amino)-5-((6-(3-(2′-fluoro-3′-(trifluoromethyl)-[1,1′-biphenyl]-3-yl)isoxazolidin-2-yl)pyrimidin-4-yl)-amino)-4-methoxy-phenyl)acrylamide], the GI50 in the experiment with SK-BR-3 cancer cells and in the experiment on BT-474 cancer cells was less than 50 nM in each case.
Consider `C=CC(=O)Nc1cc(Nc2cc(N3OCC[C@@H]3c3cccc(-c4ccc(F)cc4F)c3)ncn2)c(OC)cc1N1CCN(C)CC1` [Example 281, (R)-N-(5-((6-(3-(2′,4′-difluoro-[1,1′-biphenyl]-3-yl)isoxazolidin-2-yl)pyrimidin-4-yl)-amino)-4-methoxy-2-(4-methylpiper-azin-1-yl)phenyl)-acrylamide], for which the GI50 in the experiment on SK-BR-3 cancer cells and in the experiment on BT-474 cancer cells was less than 50 nM throughout.
`C=CC(=O)Nc1cc(Nc2cc(N3OCC[C@@H]3c3cccc(-c4cccc(C(F)(F)F)c4F)c3)ncn2)c(OC)cc1N1CCN(C)CC1` [Example 282, (R)-N-(5-((6-(3-(2′-fluoro-3′-(tri-fluoromethyl)-[1,1′-biphenyl]-3-yl)isoxazolidin-2-yl)pyrimidin-4-yl)-amino)-4-methoxy-2-(4-methylpiper-azin-1-yl)phenyl)-acrylamide]: the values for the GI50 with SK-BR-3 cancer cells and with BT-474 cancer cells were 50 to 500 nM and less than 50 nM, respectively.
`C=CC(=O)Nc1cc(Nc2cc(N3OCC[C@@H]3c3cccc(-c4cc(F)cc(C(F)(F)F)c4)c3)ncn2)c(OC)cc1N1CCN(C)CC1` [Example 283, (R)-N-(5-((6-(3-(3′-fluoro-5′-(trifluoromethyl)-[1,1′-biphenyl]-3-yl)isoxazolidin-2-yl)pyrimidin-4-yl)-amino)-4-methoxy-2-(4-methylpiper-azin-1-yl)phenyl)-acrylamide]: the GI50 with SK-BR-3 cancer cells was 50 to 500 nM; in the experiment on BT-474 cancer cells, less than 50 nM.

What is called GI50 is the concentration that inhibits growth by half.
